Converted amounts (≈) assume the structure as drawn. Where two headings read alike, the source gives them in different places.
Columns and labels:
[1] = tested on: neonatal human dermal fibroblasts (ATCC PCS-201-010); experiment: Cytotoxic activity, fibroblast proliferation (sulforhodamine B); type: cell-based; conditions: for cytotoxic activity on fibroblast proliferation: 96 h, 6.25–100 μg/cm^3
Procedure: Passage for normal neonatal human dermal fibroblasts (ATCC PCS-201-010, lot 58243223) were grown in DMEM with 5 % calf serum (Hyclone). For the experiment, cells were plated in DMEM/5 % serum at 2,000 cells/well in 96 well plates (plate 598) and were exposed to test materials for 96 h. MAP and bFGF were used as the positive controls and water, 1, 0.5, and 0.25 % DMSO were used as the negative controls. Plate growth was stopped and cells were stained with a sulforhodamine B dye. The dye was then dissolved and a colorimetric signal proportional to total cell/protein count was quantified with the BioRad microplate spectrophotometer 3550-UV at 570 nm with background subtraction at 660 nm and analyzed with Microplate Manager v.2 software for Macintosh (BioRad). Error bars represent standard errors of the mean (SEM). P values representing statistical significance were calculated using the t test.

P. acnes ATCC 11827 = experiment: Antibacterial activity, MIC in broth serial dilution; conditions: for MIC: Cutibacterium acnes, ATCC11827, 72 h, read-out: MIC P. acnes, P. acnes ATCC 11827, 72 h anaerobic
Procedure: Compounds were tested at serial dilutions in bacterial broth starting at 100 μg/cm^3 (final concentration). P. acnes (ATCC 11827, lot 419697) was grown in thioglycollate nutrient broth (Hardy Diagnostics K29) for 72 h at 33 °C, then inoculated at the density equivalent to 0.5 McFarland standard and incubated with the test materials for another 72 h in an anaerobic environment. […] At the end of the incubation the MIC was assessed optically as the lowest concentration of a test material which caused no bacteria growth [34]. This optical assessment was further confirmed by measuring the absorbance at 655 nm with the BioRad 3550-UV microplate reader. The MIC was defined as at least 50 % inhibition of the increase of OD.

[2] = tested on: Mycobacterium tuberculosis H37Rv strain; experiment: Tuberculostatic activity, classical test-tube method of successive dilution; type: cell-based
M. tuberculosis sp. 192 = experiment: as above; type: cell-based; conditions: Mycobacterium tuberculosis; sp. 192, fully sensitive wild strain
UO-31 = experiment: NCI-60 DTP human tumor cell line screening; type: cell-based; conditions: for inhibition at 10 µM: Homo sapiens
[3] = tested on: panel of 60 human tumor cell lines; experiment: NCI-60 DTP human tumor cell line screening, whole panel; conditions: 10 μM, mean of growth percent for all tested cell lines
MALME-3M = experiment: NCI-60 DTP human tumor cell line screening; type: cell-based; conditions: Homo sapiens; one dose 10 μM, Melanoma MALME-3M; read-out: Growth inhibition ΔGI
A498 = experiment: NCI-60 DTP human tumor cell line screening; type: cell-based; conditions: Homo sapiens; one dose 10 μM, Renal cancer A498; read-out: Growth inhibition ΔGI
SNB-75 = experiment: NCI-60 DTP human tumor cell line screening; type: cell-based; conditions: Homo sapiens; one dose 10 μM, CNS cancer SNB-75; read-out: Growth inhibition ΔGI
HOP-92 = experiment: NCI-60 DTP human tumor cell line screening; type: cell-based; conditions: Homo sapiens; one dose 10 μM, Non-small cell lung cancer HOP-92; read-out: Growth inhibition ΔGI
NCI-H522 = experiment: NCI-60 DTP human tumor cell line screening; type: cell-based; conditions: Homo sapiens; one dose 10 μM, Non-small cell lung cancer NCI-H522; read-out: Growth inhibition ΔGI
[4] = tested on: Mycobacterium tuberculosis H37Rv, sp. 210 and sp. 192; experiment: Tuberculostatic activity, three tested strains together; type: cell-based
[5] = UO-31, one dose 10 μM, Renal cancer UO-31, read-out: Growth inhibition ΔGI

In the case of NC(=NS(=O)(=O)c1ccccc1Cl)c1ccccn1 [Compound 1, N′-[(2-Chlorophenyl)sulfonyl]-2-pyridinecarboximidamide], the growth inhibitory activity ([1]; 100 μg/cm^3) is reported as 88%, the cytotoxic effect ([1]; 6.25–12.5 μg/cm^3) is reported as “no cytotoxic effect was evident” and the “cytotoxic activity on fibroblast proliferation” value [1] is reported as “weak inhibitory activity”. For the same compound, the melting point was 140 to 142 °C, the MIC (P. acnes ATCC 11827) was 12.5 to 50 mg/L (≈ 42.3 to 169 µM) and the “MIC P. acnes” value (P. acnes ATCC 11827; P. acnes ATCC 11827, 72 h anaerobic) was 25 mg/L (≈ 84.5 µM).
In the case of NC(=NS(=O)(=O)c1cnccc1Cl)c1ccccn1 [Compound 2, N′-[(4-Chloropyridin-3-yl)sulfonyl]-2-pyridinecarboximidamide], the MIC [2] is reported as 50 mg/L (≈ 168 µM), the MIC (M. tuberculosis sp. 192) is reported as 50 mg/L (≈ 168 µM) and the “cytotoxic activity on fibroblast proliferation” value [1] is reported as “no cytotoxic activity”. The inhibition at 10 µM (UO-31; UO-31, read-out: Growth inhibition ΔGI) was 20.4% and the “Growth percent mean values (MG_MID)” value [3] was 98.2%.
N/C(=N\S(=O)(=O)c1ccccc1Cl)c1cccnc1 [Compound 3, (Z)-N′-[(2-Chlorophenyl)sulfonyl]-3-pyridinecarboximidamide] gave a melting point of 188 to 190 °C and an MIC (P. acnes ATCC 11827) greater than 100 mg/L.
With N/C(=N\S(=O)(=O)c1cnccc1Cl)c1cccnc1 [Compound 4, (Z)-N′-[(4-Chloropyridin-3-yl)sulfonyl]-3-pyridinecarboximidamide] the inhibition at 10 µM (MALME-3M) was 20%, the inhibition at 10 µM (A498) was 24.1% and the MIC (P. acnes ATCC 11827) was greater than 100 mg/L. The “Growth percent mean values (MG_MID)” value [3] was 104.8%.
In the case of NC(=NS(=O)(=O)c1ccccc1Cl)c1ccncc1 [Compound 5, N′-[(2-Chlorophenyl)sulfonyl]-4-pyridinecarboximidamide], the melting point is reported as 182 to 185 °C and the MIC (P. acnes ATCC 11827) is reported as greater than 100 mg/L.
Work on NC(=NS(=O)(=O)c1cnccc1Cl)c1ccncc1 [Compound 6, N′-[(4-Chloropyridin-3-yl)sulfonyl]-4-pyridinecarboximidamide] yielded a melting point of 215 to 218 °C and an MIC (P. acnes ATCC 11827) greater than 100 mg/L.
Compound NC(=NS(=O)(=O)c1ccccc1Cl)c1ncccn1 [Compound 7, N′-[(2-Chlorophenyl)sulfonyl]pyrimidine-2-carboximidamide] has an MIC [2] of 50 mg/L (≈ 168 µM), an MIC (M. tuberculosis sp. 192) of 50 mg/L (≈ 168 µM) and an inhibition at 10 µM (UO-31; [5]) of 19.4%. For the same compound, the MIC (P. acnes ATCC 11827) was greater than 100 mg/L and the “Growth percent mean values (MG_MID)” value [3] was 103.0%.
Work on NC(=NS(=O)(=O)c1cnccc1Cl)c1ncccn1 [Compound 8, N′-[(4-Chloropyridin-3-yl)sulfonyl]pyrimidine-2-carboximidamide] yielded an MIC [2] of 50 mg/L (≈ 168 µM), an MIC (M. tuberculosis sp. 192) of 50 mg/L (≈ 168 µM) and a melting point of 162 to 163 °C. The MIC (P. acnes ATCC 11827) was greater than 100 mg/L.
With NC(=NS(=O)(=O)c1ccccc1Cl)c1cnccn1 [Compound 9, N′-[(2-Chlorophenyl)sulfonyl]pyrazine-2-carboximidamide] the melting point was 173 to 174 °C and the MIC (P. acnes ATCC 11827) was greater than 100 mg/L.
Work on NC(=NS(=O)(=O)c1cnccc1Cl)c1cnccn1 [Compound 10, N′-[(4-Chloropyridin-3-yl)sulfonyl]pyrazine-2-carboximidamide] yielded an MIC [2] of 50 mg/L (≈ 168 µM), an MIC (M. tuberculosis sp. 192) of 25 mg/L (≈ 84 µM) and an inhibition at 10 µM (SNB-75) of 19.3%. For the same compound, the MIC (P. acnes ATCC 11827) was greater than 100 mg/L and the “Growth percent mean values (MG_MID)” value [3] was 101.9%.
For NC(=NS(=O)(=O)c1ccccc1Cl)c1cncc(Cl)n1 [Compound 11, 6-Chloro-N′-(2-chlorophenylsulfonyl)pyrazine-2-carboximidamide], the inhibition at 10 µM (MALME-3M) was 22.6%, the inhibition at 10 µM (UO-31; [5]) was 19.4 to 21.1% and the “Growth inhibition ΔGI” value (UO-31; one dose 10 μM, Renal cancer UO-31) was 22.6%. The MIC (P. acnes ATCC 11827) was greater than 100 mg/L and the “Growth percent mean values (MG_MID)” value [3] was 102.1%.
With NC(=NS(=O)(=O)c1cnccc1Cl)c1cncc(Cl)n1 [Compound 12, 6-Chloro-N′-[(4-chloropyridin-3-yl)sulfonyl]pyrazine-2-carboximidamide] the inhibition at 10 µM (HOP-92) was 25.9%, the inhibition at 10 µM (NCI-H522) was 143% and the MIC (P. acnes ATCC 11827) was greater than 100 mg/L. The “Growth percent mean values (MG_MID)” value [3] was 97.8%.
COc1cncc(C(N)=NS(=O)(=O)c2ccccc2Cl)n1 [Compound 13, N′-(2-Chlorophenylsulfonyl)-6-methoxypyrazine-2-carboximidamide] showed a melting point of 227 to 230 °C and an MIC (P. acnes ATCC 11827) greater than 100 mg/L.
For COc1cncc(C(N)=NS(=O)(=O)c2cnccc2Cl)n1 [Compound 14, N′-[(4-Chloropyridin-3-yl)sulfonyl]-6-methoxypyrazine-2-carboximidamide], the melting point was 265 to 270 °C (dec.) and the MIC (P. acnes ATCC 11827) was greater than 100 mg/L.
NC(=NS(=O)(=O)c1cnccc1Cl)c1ccc2ccccc2n1 [Compound 16, N′-[(4-Chloropyridin-3-yl)sulfonyl]quinoline-2-carboximidamide] gave an MIC (P. acnes ATCC 11827) greater than 100 mg/L.
With NNC(=O)c1ccncc1 [INH, isoniazid, reference compound] the MIC [2] was 0.5 mg/L (≈ 3.65 µM), the MIC (M. tuberculosis sp. 192) was 0.5 mg/L (≈ 3.65 µM) and the MIC [4] was 0.5 to 1 mg/L (≈ 3.65 to 7.29 µM).
